The term half-life denotes the time in which the quantity being followed falls by half. Read a low half-life as rapid decline. As a reminder, the fraction unbound is the share of the substance not bound to proteins or other matrix. A high value points to weak binding. What is called bioavailability is the share of a dose that reaches the circulation, judged against a reference dose that is usually intravenous. As usually defined, the Papp B→A is the apparent permeability from the basolateral to the apical side of a cell layer. As a reminder, the AUC is concentration integrated over time. For orientation: Papp A→B means the apparent permeability from the apical to the basolateral side of a cell layer.

The nature of data set [1]: Intrinsic clearance in human liver microsomes.
Data set [2] in a line: Half life in mouse at 2 umol/kg, po. The conditions noted are these: in vivo.
Data set [3] is described as follows: Intrinsic clearance in mouse liver microsome. The conditions noted are these: microsomes. In general terms: Liver microsomes are vesicles of endoplasmic reticulum, rich in cytochrome P450 enzymes.
Data set [4] can be described thus: Protein binding in human plasma.
Data set [5] in a line: in vivo. The conditions noted are these: mouse, po, 2 umol/kg.
A short description of data set [6]: Apparent permeability across basal to apical membrane in human Caco-2 cells. Background: Passage across Caco-2 layers is used to estimate intestinal permeability.
Data set [7] in a line: in vivo. The conditions noted are these: mouse, po, 2 umol/kg. This is another data set of the same source.
Data set [8] is described as follows: Protein binding in mouse plasma.
A short description of data set [9]: Clearance in mouse at 2 umol/kg, po or 1 umol/kg, iv. The conditions noted are these: in vivo.
Data set [10] is described as follows: Half life in mouse at 1 umol/kg, iv. The conditions noted are these: in vivo.
The nature of data set [11]: Apparent permeability across apical to basal membrane in human Caco-2 cells.

`Cc1c(CN2CCN(C(=O)C3CCCC3)[C@@H](C)C2)cc(F)cc1NC(=O)CCc1ccccc1`: the CLH in [1] is 1900 µL/min/mg.
As for `Cc1c(CN2CCN(C(=O)C3CCCC3)[C@@H](C)C2)cc(F)cc1NC(=O)CC(CCC(=O)O)c1ccccc1` (stereo in doubt; 6a), the half-life in [2] is 1.5 h; in [10], 1.2 h. Also, the CLH in data set [3] is 17 µL/min/mg; in data set [1] it was < 10 µL/min/mg. Moreover, the fraction unbound in [4] was 0.006; in [8] it was 0.028. In [5], the bioavailability came to 46%. The Papp B→A in [6] is 39 ×10⁻⁶ cm/s. Further, the AUC in [7] worked out at 0.2 µM·h. The clearance in data set [9] is 76.7 mL/min/kg. Further, the Papp A→B in data set [11] worked out at 1.3 ×10⁻⁶ cm/s.
Regarding `Cc1c(CN2CCN(C(=O)C3CCCC3)[C@@H](C)C2)cc(F)cc1NC(=O)CC(CCC(=O)O)c1ccccc1` (stereo in doubt; 6b), the CLH in data set [1] amounted to 21 µL/min/mg.
For the compound `C[C@H]1CN(Cc2cc(Cl)cc(NC(=O)CC(CCC(=O)O)c3ccccc3)c2Cl)CCN1C(=O)C1CCCC1` (stereo in doubt; 12a), the half-life in data set [2] and in [10] was 1.5 h in each case. In addition, the CLH in data set [3] is < 10 µL/min/mg; in [1] it was 31 µL/min/mg. Moreover, the values for the free fraction (fraction unbound) in [4] and in data set [8] were 0.003 and 0.006, respectively. Further, in data set [5], the bioavailability came to 100%. The Papp B→A in [6] stood at 45 ×10⁻⁶ cm/s. The compound further gave an AUC in data set [7] of 4 µM·h. In addition, the clearance in data set [9] was 8.67 mL/min/kg. Moreover, in data set [11], the Papp A→B amounted to 13 ×10⁻⁶ cm/s.
As for `C[C@H]1CN(Cc2cc(Cl)cc(NC(=O)CC(CCC(=O)O)c3ccccc3)c2Cl)CCN1C(=O)C1CCCC1` (stereo in doubt; 12b), in [1], the CLH was < 10 µL/min/mg.

Values taken from ChEMBL document CHEMBL4732159, “Discovery of 6-Oxo-4-phenyl-hexanoic acid derivatives as RORγt inverse agonists showing favorable ADME profile” (Bioorg Med Chem Lett, 2021).
